Experimental data reported in patent publication US9102657B2, “Sodium salt of (R)-3-[6-amino-pyridin-3-yl]-2-(1-cyclohexyl-1H-imidazol-4-yl)-propionic acid” (Sanofi, priority 2011, dated 2015).

Assays:
[1] = Chiral stability: solid stored at 40° C. and 75% RH, enantiomeric excess by chiral HPLC; conditions: for Enantiomeric excess: storage condition (B): solid, 40° C. and 75% RH, 4 weeks; for chemical / chiral stability (in words): elevated temperature and humidity, storage 40° C. and 75% RH, sodium salt dihydrate
Protocol: Enantiomeric excess was determined by chiral HPLC on a HPLC system containing a Quaternary HPLC pump (e.g. HP 1100), an auto sampler, an UV absorbance detector (e.g. DAD Agilent Technologies or other adequate HPLC-System) and a computer data acquisition system with suitable software (e.g. Dionex-Chromeleon). A Chirobiotic R, Supelco (Astec) (4.6×250 mm; 5 μm) column was used as stationary phase and a solution of 800 mL water, 1200 mL acetonitrile and 1.0 g ammoniumacetate was used as mobile phase. The flow rate was set to a value of 1.5 mL/minute and the oven temperature was set to 45° C. Detection was performed by absorbance of the compounds at 236 nm (UV) (bandwidth: 8 nm) and reference wavelength was set to 450 nm (bandwidth: 50 nm). Typical total run times were in the range of about 15 minutes. For sample preparation 50 mg of the substance were accurately weighed into a 10 mL volumetric flask and dissolved and diluted to volume with solvent (acetonitrile/water 50:50). For the HPLC analysis 5 μL of the sample were injected into the system.
Gradient used: Isograt (15 minutes 100% mobile phase A)

[2] = Dynamic Vapor Sorption (DVS), moisture sorption/desorption isotherms at 25° C.; type: physicochemical
Protocol: Moisture sorption/desorption isotherms were recorded on a SPS11-10μ from Projekt Messtechnik (Ulm, Germany). One cycle was run at 25° C., in which the sample was first stepwise decreased to 0% Room humidity (RH) and then the relative humidity was stepwise increased from 0 to 95% and the weight of the sample was measured. Typical total measurement times for both cycles were about 20 to 30 hours.

SMILES	Enantiomeric excess [1]	Enantiomeric excess ([1]; listed as (R)-3-[6-amino-pyridin-3-yl]-2-(1-cyclohexyl-1H-imidazol-4-yl)-propionic acid)	hygroscopicity, absorption or adsorption of water from the surrounding environment (in words) [2]	chemical / chiral stability (in words) ([1]; listed as sodium salt of (R)-3-[6-amino-pyridin-3-yl]-2-(1-cyclohexyl-1H-imidazol-4-yl)-pr)	chemical / chiral stability (in words) [1]	sorption and desorption isotherms (in words) ([2]; DVS 25° C., between 30% relative humidity and 0.4% relative humidity)
Nc1ccc(C[C@@H](C(=O)O)c2cn(C3CCCCC3)cn2)cn1 [Example 1, (R)-3-[6-amino-pyridin-3-yl]-2-(1-cyclohexyl-1H-imidazol-4-yl)-propionic acid]	91.6%	91.6%				
Nc1ccc(CC(C(=O)O)c2cn(C3CCCCC3)cn2)cn1 (stereo not shown) [3-[6-amino-pyridin-3-yl]-2-(1-cyclohexyl-1H-imidazol-4-yl)-propionic acid]			hygroscopic			
Nc1ccc(C[C@@H](C(=O)[O-])c2cn(C3CCCCC3)cn2)cn1.[Na+] [Example 3, (R)-3-[6-amino-pyridin-3-yl]-2-(1-cyclohexyl-1H-imidazol-4-yl)-propionic acid sodium salt dihydrate]			favorable reduced absorption or adsorption of water molecules	chemically stable	remain stable	almost the same (low water uptake or water desorption)
